Entries after “also recorded” stand apart in the source; their conditions may differ. Non-standard residues stand in square brackets, D forms with d. Residues, ends and D or L forms follow the SMILES beside them. 1Nal = N[C@@H](Cc1cccc2ccccc12)C(=O)O; NMeF = CN[C@@H](Cc1ccccc1)C(=O)O; Cha = N[C@@H](CC1CCCCC1)C(=O)O; dCha = N[C@H](CC1CCCCC1)C(=O)O

Data set [1] relates to human neutrophil membranes. The experiment in a line: GTPase activity in neutrophil membranes (G protein activation). The class given is biochemical. The source says:
(§1) FIG. 6A and 6B. Chemotaxis and G protein activation elicited by the hexapeptides.
Since C5a evokes such a plethora of biological responses, it is difficult to ascertain a molecule's overall functional properties from any subset of responses. […] An alternative to investigating all of the responses generated by the C5a receptor, is to determine a molecule's ability to stimulate G protein activation. Such a measurement should give an integrated view of a molecule's agonist properties. As a measure of G protein activation we have investigated the peptides' abilities to stimulate GTPase activity in human neutrophil membranes:
(§2) The method of Kupper et al. (Kupper, R. W., Dewald, B., Jakobs, K. H., Baggiolini, M. and Gierschik, P. (1992) Biochem. J. 282, 429-434) was adapted for use in microtiter plates. Neutrophil membranes were suspended in 50 mM triethanolamine-HCl, 5 mM MES, pH 7.3, containing 1 mM EDTA, 5 mM MgCl2, 143 mM NaCl, 0.16 % BSA, 1 mM ouabain, 1 mM AMP-PNP, 0.5 mM ATP, 2.5 U/mL creatine phosphokinase,. 10 mM creatine phosphate, 0.1 mM PMSF and 10 ng/mL each of leupeptin, aprotinin and chymostatin. 50 μL of membranes containing 1-5 μg protein were added to 50 μL of the same buffer containing the test agent and 0.25 μM [γ-^32 P]-GTP (2,000 cpm/pmol) in the wells of a U-shaped microtiter plate. After incubation for 15-30 rain at 29° C., 100 μL of a 10% (w/v) charcoal suspension in 100 mM H3 PO4 was added and plates were centrifuged at 2000 rpm for 5 min. 100 μL of the supernatant was transferred to an Optiplate microtiter plate and 100 μL of Microscint-40 scintillation cocktail was added. Plates were counted in a Packard TopCount microtiter plate counter.

In data set [2] the target is T1, C5a receptor (Homo sapiens, UniProt P21730).
T1 construct: followed by a 20 μL aliquot of neutrophil membrane; endogenous in cells
T1 sequence (P21730 1-350): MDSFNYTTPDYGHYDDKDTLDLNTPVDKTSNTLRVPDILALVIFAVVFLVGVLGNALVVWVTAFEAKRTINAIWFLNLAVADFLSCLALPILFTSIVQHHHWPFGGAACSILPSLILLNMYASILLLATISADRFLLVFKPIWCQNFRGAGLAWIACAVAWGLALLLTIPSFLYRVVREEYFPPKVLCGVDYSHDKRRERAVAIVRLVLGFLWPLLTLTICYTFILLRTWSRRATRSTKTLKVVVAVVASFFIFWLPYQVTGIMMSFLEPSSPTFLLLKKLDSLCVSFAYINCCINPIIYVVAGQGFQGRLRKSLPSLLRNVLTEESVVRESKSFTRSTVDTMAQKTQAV
In words: Agonist activity over all C5a induced responses (chemotaxis, MPO release, calcium flux, GTPase activity, GTPγ-S binding). The class given is cell-based. The conditions noted are these: C089 tested up to and including 100 μM. The protocol:
The EC50 measures the concentration of compound at which a 50% maximal stimulation of a given biological response induced by C5a is achieved (chemotaxis, MPO release, calcium flux, GTPase activity or GTPγ-S binding), and the IC50 is the concentration at which 50% maximal inhibition of C5a binding is achieved.
This assay was performed on human neutrophils as previously reported and it is a measure of C5a or peptide induced exocytosis (Rollins, T. E. and Springer, M. S. (1985) J. Biol. Chem. 260, 7157-7160).
Ligand induced Ca^2+ fluxes were measured by following the change in Indo-1 induced fluorescence on a FACS analyzer as previously described (Van Riper, G., Siciliano, S. J., Fischer, P. A., Meurer, R., Springer, M. S. and Rosen, H. (1993) J. Exp. Med. 177, 851-856.).
This assay is a modification of the procedure described by Sims et. al. (Sims, T. J., Geissler, F. T. and Page, R. C. (1985) J. lmmunol. Meth. 78, 279-291 ). Chemotaxis was assayed in a 48 well Neuro Probe chamber (Neuro Probe, Bethesda, MD) using ^51 Cr-labelled cells. […] After preforming a gradient for 30 minutes at 37° C., 2×10^5 labelled cells were added to the upper chamber and allowed to migrate at 37° C. for one hour. The upper two polycarbonate filters were then discarded and the formed wells cut from the nitrocellulose membrane. The radioactivity present in these filters is a measure of the number of cells that migrated through both polycarbonate filters.
as §2

Data set [3] relates to human neutrophils. The experiment in a line: Chemotaxis, Boyden Chamber assay. In kind it is cell-based. The conditions noted are these: FIG. 6A. The protocol:
as §1
This assay is a modification of the procedure described by Sims et. al. (Sims, T. J., Geissler, F. T. and Page, R. C. (1985) J. lmmunol. Meth. 78, 279-291 ). Chemotaxis was assayed in a 48 well Neuro Probe chamber (Neuro Probe, Bethesda, MD) using ^51 Cr-labelled cells. Varying concentrations of C5a or peptide were placed in the lower chamber which was successively covered by a 100 μm nitrocellulose membrane (Neuro Probe, Bethesda, Md.) and two 3 μm polycarbonate filters. After preforming a gradient for 30 minutes at 37° C., 2×10^5 labelled cells were added to the upper chamber and allowed to migrate at 37° C. for one hour. The upper two polycarbonate filters were then discarded and the formed wells cut from the nitrocellulose membrane. The radioactivity present in these filters is a measure of the number of cells that migrated through both polycarbonate filters.
A plot of the initial concentration of agent placed in the lower chamber against the number of cells which migrate (measured by counting the ^51 Cr-labelled cells) is shown in FIG. 6A. For C5a, maximal response occurs at 10 nM. Since the cells migrate in response to the concentration gradient established across the filters, the actual stimulatory concentration is much lower than the nominal value plotted on the abcissa in FIG. 6A.

[4] abbreviates: nominal initial concentration in lower chamber.

For the molecule `CN[C@@H](Cc1ccccc1)C(=O)N[C@@H](CCCCN)C(=O)N1CCC[C@H]1C(=O)N[C@H](CC1CCCCC1)C(=O)N[C@@H](Cc1c[nH]c2ccccc12)C(=O)N[C@H](CCCNC(=N)N)C(=O)O` [C089], the “stimulation of GTPase activity / G protein activation in words” value in data set [1] (FIG. 6B) is on record as “does not stimulate G protein activation; also recorded: fails entirely to stimulate GTP hydrolysis”. Besides, in data set [2], the “agonist activity in words, all responses” value is on record as “without agonist activity in any of the assays; also recorded: do not induce a response; also recorded: completely devoid of agonist activity”. For the same molecule, the “chemotactic response in words” value in data set [3] is given as “little or no ability to stimulate a chemotactic response”.
For `CN[C@@H](Cc1ccccc1)C(=O)N[C@@H](CCCCN)C(=O)N1CCC[C@H]1C(=O)N[C@H](CC1CCCCC1)C(=O)N[C@@H](Cc1cccc2ccccc12)C(=O)N[C@H](CCCNC(=N)N)C(=O)O` [C061] (H-[NMeF]KP[dCha][1Nal][dR]-OH), in data set [1] (FIG. 6B), the “stimulation of GTPase activity / G protein activation in words” value is reported as “significantly lower GTPase activity”. In addition, in data set [3], the “chemotactic response in words” value is “good chemotactic activity; also recorded: elicits as great an accumulation of cells as either C026, or C028, or for that matter, C5a”. Besides, the “concentration of maximal chemotactic response (maximal migration)” value (from here on “concentration … (maximal migration)”) in data set [3] (setting [4]) was “about 100 μM”.
Regarding `CC(C)C[C@H](NC(=O)[C@H](CC1CCCCC1)NC(=O)[C@H](CC1CCCCC1)NC(=O)[C@H](C)NC(=O)[C@H](CCCCN)NC(=O)[C@H](Cc1ccccc1)NC(=O)[C@@H](N)Cc1ccc(O)cc1)C(=O)N[C@H](Cc1ccccc1)C(=O)N[C@@H](CCCNC(=N)N)C(=O)O` [C009, Tyr Phe Lys Ala Cha Cha Leu dPhe Arg] (H-YFKA[Cha][Cha]L[dF]R-OH), the “agonist activity in words, all responses” value in data set [2] is “C5a agonist”.
As for `CN[C@@H](Cc1ccccc1)C(=O)N[C@@H](CCCCN)C(=O)N1CCC[C@H]1C(=O)N[C@H](CC1CCCCC1)C(=O)N[C@@H](Cc1ccccc1)C(=O)N[C@H](CCCNC(=N)N)C(=O)O` [C026, NMeF--K--P-dCha-F-dR] (H-[NMeF]KP[dCha]F[dR]-OH), in data set [1] (FIG. 6B), the “stimulation of GTPase activity / G protein activation in words” value is recorded as “full agonist in chemotaxis or C5a receptor-linked G-protein activation; also recorded: somewhat reduced ability to stimulate the GTP hydrolysis”. In data set [3], the “chemotactic response in words” value is on record as “full agonist in chemotaxis; also recorded: strong chemoattractants; also recorded: as chemotactic as C028”. The “concentration … (maximal migration)” value in data set [3] (setting [4]) is 1 µM.
For the molecule `CN[C@@H](Cc1ccccc1)C(=O)N[C@@H](CCCCN)C(=O)N1CCC[C@H]1C(=O)N[C@H](CC1CCCCC1)C(=O)N[C@@H](CC1CCCCC1)C(=O)N[C@H](CCCNC(=N)N)C(=O)O` [C028, MePhe Lys Pro dCha Cha dArg] (H-[NMeF]KP[dCha][Cha][dR]-OH), the “stimulation of GTPase activity / G protein activation in words” value in data set [1] (FIG. 6B) is listed as “stimulates as much GTPase activity as does C5a”. In addition, in data set [1] (FIG. 6B, read-out: ED50 for stimulation of GTPase activity), the EC50 came to 0.1 µM. Moreover, in data set [2], the “agonist activity in words, all responses” value was “almost complete agonists of all of these responses”. The “chemotactic response in words” value in data set [3] is recorded as “strong chemoattractants”. The “concentration … (maximal migration)” value in data set [3] (setting [4]) turned out to be 1 µM.

B1: C5a: 74 amino acid protein derived from the fifth component of serum complement during complement activation (protein, UniProt P01031 678-751, looked up)
C5a anaphylatoxin: TLQKKIEEIAAKYKHSVVKKCCYDGACVNNDETCEQRAARISLGPRCIKAFTECCVVASQLRANISHKDMQLGR
modifications: C5a anaphylatoxin
Molecule B1 gave a GTPase activity in data set [1] (3 nM C5a, absence of C089, raised from 46) of 64 pmol/min/mg protein. For the same molecule, the “concentration of maximal chemotactic response” value in data set [3] (setting [4]) was found to be 10 nM.

The values above are taken from patent US5614370A, “Assay to identify human C5a antagonists and agonists” (Merck & Co., Inc., priority 1994, dated 1997).
